PMC4627230, “Identification of TAX2 peptide as a new unpredicted anti-cancer agent” (Oncotarget, 2015)
Entries after “also recorded” stand apart in the source; their conditions may differ.

Columns and labels:
[1] = tested on: TSP-1; assay: Microscale thermophoresis; format: binding; settings: data not shown
[2] = tested on: HUVECs; assay: Wound-healing migration assay; format: cell-based, human; settings: 100 μM, 9 h, after mitomycin C, mean of 3 in quadruplicate
Procedure: (§1) Figure 2 TAX2 peptide impairs endothelial cell migration and inhibits angiogenesis in vitro and ex vivo A. HUVECs were treated with TAX2 (100 μM) or scrambled peptide (Ctrl, 100 μM). CD47 was immunoprecipitated from total protein lysates using anti-CD47 (clone B6H12) and non-specific IgGs were used as a negative control. Immunocomplexes were then submitted to SDS-PAGE and immunoblotted (IB) using specific TSP-1 and CD47 antibodies. Histogram represents the quantification of co-immunoprecipitated TSP-1 relative to immunoprecipitated CD47. Results are expressed as percentage compared to control (n = 3 separate experiments, t test). B. HUVECs (1 × 10^5 per well) were grown at confluence and then cell proliferation was inhibited by incubating with 10 μg/mL mitomycin C for 2 h. […] Graph represents the quantification of the wounded area. […] Hoechst-stained migrating cells attached on outside surface of the top chamber were photographed (20× objective) and counted. Results are expressed as percentage of migrated cells as compared to control. […] After 8 h incubation, HUVEC tube-like formation was observed on an inverted microscope (40×) and quantification of network total length was done using ImageJ software. […] Data are expressed as the mean ± SE from at least 3 independent experiments, each performed in triplicate. […] The transcriptional level of TSP-1 was assessed by RT-PCR and normalized to β-actin. […]

[3] = tested on: BALB/C nu/nu mice; assay: Tolerability in xenograft-bearing mice; format: in vivo, mouse
Procedure: (§2) For the subcutaneous melanoma tumor model, suspensions of B16F1 cells (2.5 × 10^5 cells in 100 μL RPMI-1640 medium) were subcutaneously injected into the left flank of different randomized series of syngeneic C57BL/6 mice (n = 8–10 per group), as previously described. Intraperitoneal administrations of peptide (10 mg/kg mouse weight) or controls (physiological serum 0.9% (w/v) NaCl or a scrambled peptide) were performed at days 3, 5 and 7. In human pancreatic carcinoma xenograft experiments, 3 × 10^6 MIA PaCa-2 cells/mouse were implanted subcutaneously into the left flank of BALB/C athymic nude mice, then TAX2 intraperitoneal treatments (10 mg/kg mouse weight) were performed 3 times a week during 4 weeks starting at day 10 after tumor cells inoculation. Tumor volume was determined according to v = 0.5 A × B^2, where A denotes the largest dimension of the tumor and B represents the smallest dimension. At days indicated, mice were sacrificed and tumors were surgically extracted and fixed in 4% paraformaldehyde for further morphologic studies and for magnetic resonance imaging, or frozen for immunohistochemistry. Mice were also weighed every 2–3 days and daily checked for any modification in their behavior. […]

[4] = tested on: MIA PaCa-2 xenograft in BALB/C nu/nu mice; assay: MIA PaCa-2 human pancreatic carcinoma xenograft growth; format: in vivo, human tumor xenograft in mouse
Procedure: For the subcutaneous melanoma tumor model, suspensions of B16F1 cells (2.5 × 10^5 cells in 100 μL RPMI-1640 medium) were subcutaneously injected into the left flank of different randomized series of syngeneic C57BL/6 mice (n = 8–10 per group), as previously described. Intraperitoneal administrations of peptide (10 mg/kg mouse weight) or controls (physiological serum 0.9% (w/v) NaCl or a scrambled peptide) were performed at days 3, 5 and 7. In human pancreatic carcinoma xenograft experiments, 3 × 10^6 MIA PaCa-2 cells/mouse were implanted subcutaneously into the left flank of BALB/C athymic nude mice, then TAX2 intraperitoneal treatments (10 mg/kg mouse weight) were performed 3 times a week during 4 weeks starting at day 10 after tumor cells inoculation. Tumor volume was determined according to v = 0.5 A × B^2, where A denotes the largest dimension of the tumor and B represents the smallest dimension. At days indicated, mice were sacrificed and tumors were surgically extracted and fixed in 4% paraformaldehyde for further morphologic studies and for magnetic resonance imaging, or frozen for immunohistochemistry. Mice were also weighed every 2–3 days and daily checked for any modification in their behavior. Loss of 15% body weight was an indication for euthanasia as well as severe tumor necrosis, as it was sometimes associated with skin ulceration that would result in loss of body fluid and/or infection.

[5] = tested on: microvessel sprouting from mouse aortic rings (C57BL/6); assay: Mouse aortic ring assay (ex vivo); settings: 100 μM, 6 days, mouse aortic ring in matrigel
Procedure: as §1

[6] = tested on: C57BL/6 mice; assay: Tolerability in melanoma-bearing mice (μCT of healthy organs, dissection); format: in vivo, mouse; settings: 10 mg/kg i.p. days 3, 5, 7, dissections, data not shown
Procedure: as §2, with “dimension.” for “dimension. At days indicated, mice were sacrificed and tumors were surgically extracted and fixed in 4% paraformaldehyde for further morphologic studies and for magnetic resonance imaging, or frozen for immunohistochemistry. Mice were also weighed every 2–3 days and daily checked for any modification in their behavior.”
Animals were anesthetized by isoflurane (Forene, Abbott France, Rungis, France) inhalation (3% for induction and 1–1.5% for maintenance) and then after placed in a carbon fibers bed. […] Analysis of reconstructed images and quantification of the vascular network were performed using Amira 5.4.3 software.

Q: How did the “binding to TSP-1 by microscale thermophoresis” value [1] turn out when “CEVSQLLKGDAC (disulfide) [TAX2, CD47-derived cyclic disulfide dodecapeptide …]” was run?
A: confirmed

Q: What about the “endothelial cell migration rate (wound healing)” value [2] of the same sequence?
A: reduced migration rate

Q: And the “clinical sign or weight loss” value ([3]; 10 mg/kg i.p. 3 times a week for 4 weeks)?
A: mice did not exhibit any other clinical sign or weight loss

Q: And the “thrombosis, hemorrhage or embolism in xenograft-bearing mice” value ([3]; healthy organs, human pancreatic carcinoma model)?
A: no signs of thrombosis, hemorrhage or embolism were observed in healthy organs

Q: What about the xenograft growth delay ([4]; 10 mg/kg i.p. 3 times a week for 4 weeks from day 10) of the same sequence?
A: strong delay

Q: What about the “decrease of tumor volume at day 38” value ([4]; 10 mg/kg i.p. 3 times a week for 4 weeks from day 10, n = 9, p < 0.05) of the same sequence?
A: 2 fold

Q: And the “tumor volume at day 24, xenograft” value ([4]; 10 mg/kg i.p. 3 times a week from day 10, n = 15)?
A: no differences in measured tumor volume were observed

Q: And the “inhibition rate compared to 5 mg/kg bevacizumab twice weekly i.p.” value ([4]; MIA PaCa-2 xenograft, bevacizumab data from ref [56])?
A: higher inhibition rates

Q: What about the “microvessel sprouting from the aorta” value [5] of the same sequence?
A: markedly inhibited

Q: What about the “thrombosis, hemorrhage or embolism in melanoma-bearing mice” value [6] of the same sequence?
A: neither μCT imaging of healthy organs nor mice dissections highlighted any sign of thrombosis, hemorrhage or embolism; also recorded: no signs of thrombosis, hemorrhage or embolism were observed in healthy organs
